# Assay results reported in patent US5965720A, “Oligonucleotide N3'→P5' phosphoramidates” (Lynx Therapeutics, Inc., priority 1997, dated 1999).
# Entries after “also recorded” stand apart in the source; their conditions may differ. [np] = N3'→P5' phosphoramidate
# Columns and labels:
# [1] = system: dA10:dT10 duplex region of the hairpin DNA target d(A10 C4 T10); assay: Triplex melting with hairpin DNA target d(A10 C4 T10); assay type: binding
# Protocol: Melting curves were obtained for triplexes formed by the decathymidilic phosphoramidate […] and the dA10 :dT10 duplex region of the hairpin DNA target d(A10 C4 T10) (FIG. 3, experiment 7).
# (§1) Triplex thermal stabilities were evaluated essentially as described above for duplexes.
# FIGS. 7A to 7D present exemplary triplex melting curves. FIGS. 7A and 7C present normalized absorbance at 260 nm plotted against temperature. FIGS. 7B and 7D present normalized absorbance at 284 nm plotted against temperature. In the figures: the triplexes formed by double stranded DNA and phosphoramidate Oligonucleotide 3 correspond to the black circle line; triplexes formed with phosphodiester Oligonucleotide 1 correspond to open squares line).
# The data correspond to FIG. 3, experiment 7 where curves (A) and (C) were thermal stability studies performed using buffers A and B, respectively, with hyperchromicity monitored at 260 nm. Curves (B) and (D) are (A) and (C) respectively, but where hyperchromicity was monitored at 284 nm.
# [2] = system: 24-mer hairpin target d(A10 C4 T10); assay: Gel band mobility shift assay, 24-mer hairpin target; assay type: binding; details: native conditions, 10 mM MgCl2, 80 mM Tris-borate, pH 8.2, 10° C.
# Protocol: Triplex structures were further evaluated using gel band mobility shift assays.
# Gel band mobility shift assay conditions were as follows: 20% acrylamide, 5% bisacrylamide in 10 mM MgCl2, 80 mM Tris-borate buffer, pH 8.2, 10° C. Gels were typically run under native (non-denaturing) conditions. In the figure the lanes are as follows: 1--10-mer phosphodiester Oligonucleotide 1; 2--10-mer phosphoramidate Oligonucleotide 3; 3--24-mer hairpin target d(A10 C4 T10) (FIG. 3, experiment 7).
# The gel was stained with STAINS-ALL™ (Kodak, Rochester N.Y.) and imaged on a Molecular Dynamics (Sunnyvale, Calif.) densitometer.
# BV173 cells = assay: Leukemic cell proliferation, BV173 cells (B2A2 BCR/ABL fusion junction); details: for shape of inhibition curves at later time points after partial release of inhibition: FIGS. 14 and 18; for inhibition of BV173 leukemia cell growth relative to phosphoramidate oligonucleotide 6: comparable concentrations
# [3] = Thermal dissociation of oligonucleotide hairpin duplexes; assay type: physicochemical
# Protocol: Experiments were also performed to evaluate the stability of duplexes formed by oligonucleotides containing phosphoramidate linkages in both complementary strands.
# The stability of duplexes formed by oligonucleotides containing phosphoramidate linkages in both complementary strands was evaluated essentially as described above.
# All the molecules in FIG. 6 were constructed using 2'-deoxyribonucleotides.
# as §1
# control cell lines = assay: Cytotoxicity of antisense oligonucleotides in leukemia cell culture; assay type: cell-based
# Text: FIGS. 10 through 19 show the results of anti-sense oligonucleotides, having either phosphoramidate (N3'→P5') (FIGS. 10-15) or phosphorothioate (FIGS. 16-19) intersubunit linkages, on leukemia cell proliferation for different BCR-ABL leukemia cell lines and control cell lines.
# (§2) N3'→P5' phosphoramidate linkage containing anti-sense oligonucleotides were synthesized which were complementary to the BCR/ABL fusion junction (B2A2) in leukemic cell line BV173. The following assay measures leukemic cell proliferation and is performed essentially as described by Anfossi, et al. (1989).
# (§3) Cells (5×10^4) were placed in 0.2 ml of liquid suspension culture (Iscove's modified Dulbecco's modified medium with 2% human AB serum--Life Technologies, Gaithersburg, Md.).
# (§4) The oligonucleotides were administered to the cultures at 24 hour intervals for three days (days 0, 1 and 2) to achieve the incremental concentrations shown in the legends of FIGS. 10-19 (all concentrations in μg/mL), for example, FIG. 10--40/20/20; 20/10/10; 10/5/5; and 5/2.5/2.5. Note that, for example, 40/20/20 reflects a final total concentration of 80 μg/ml in the cell culture medium after the last oligonucleotide addition. Cell counts were performed by standard methods.
# complementary DNA strand = assay: Thermal dissociation of duplexes with complementary DNA strand; assay type: binding
# Protocol: (§5) The hybridization properties of the phosphoramidate analogs were evaluated relative to complementary DNA or RNA strands having standard phosphodiester intersubunit linkages. The thermal stability data for duplexes generated from phosphoramidate analogs and phosphodiester oligomers are summarized in FIG. 3 (Example 1).
# (§6) The same trend is true for the mixed-base undecanucleotide 6 (FIG. 3), where the Tm 's of duplexes with complementary DNA and RNA strands were 49.2° C. and 72.4° C., respectively, (FIG. 3, experiments 13, 14).
# Thermal dissociation curves were obtained using a Carry IE spectrophotometer (Varian, Palo Alto, Calif.) that was equipped with a temperature controller (Varian). […]
# (§7) The molar extinction coefficients used for oligo(dT), poly(dA) and poly(A) were 8.2, 8.4, and 10.2 A260 ×10^3, respectively. An extinction coefficient of 109 A260 Units/μM was used for the mixed-based oligomers--the extinction coefficient was calculated from the table compiled by P. N. Borer (1975).
# Reaction solutions were equilibrated at 0° C. and the absorbance at 260 nm was followed as the temperature was increased in increments of 3° C. per 5 minutes. The fraction of an oligomer in the bound state, α,at a given temperature was determined by use of upper and lower base lines as described by Abergo, et al. (1981). […]
# complementary RNA strand = assay: Thermal dissociation of duplexes with complementary RNA strand; assay type: binding
# Protocol: as §5, §6
# Thermal dissociation curves were obtained using a Carry IE spectrophotometer (Varian, Palo Alto, Calif.) that was equipped with a temperature controller (Varian). The reaction solutions contained equivalent concentrations of oligomer and complement (approximately 6 μM in oligomer strand) in 15 mM phosphate buffer at pH 7.05, with NaCl added to give a total Na+ concentration of 100 mM.
# as §7
# Reaction solutions were equilibrated at 0° C. and the absorbance at 260 nm was followed as the temperature was increased in increments of 3° C. per 5 minutes. The fraction of an oligomer in the bound state, α,at a given temperature was determined by use of upper and lower base lines as described by Abergo, et al. (1981). Tm values are defined as the temperature at which α=0.5. Plots of Ink (Marky, et al., 1987) versus 1/T were linear for these compounds.
# In the table, Tm is the temperature at the midpoint of the melting curve; np is the abbreviation for the 3'--NHP(O)(O^-)0-5' phosphoramidate link.
# The concentrations of oligonucleotides were typically at 5 μM oligomer strands. Buffer A (10 mM Tris HCl, 150 mM NaCl, pH 7.02) was used for duplex thermal stability studies.
# [4] = system: single mismatch RNA target; assay: Thermal dissociation of duplexes with single mismatch RNA target; assay type: binding; details: mismatch discrimination
# Protocol: Hybridization of the phosphoramidate oligonucleotides with complementary nucleic acids is sequence specific and determined by the proper Watson-Crick base pairing.
# Reaction solutions were equilibrated at 0° C. and the absorbance at 260 nm was followed as the temperature was increased in increments of 3° C. per 5 minutes. […] Tm values are defined as the temperature at which α=0.5.
# [5] = system: 26-mer hairpin target (SEQ ID NO:22); assay: Gel band mobility shift assay, 26-mer hairpin target; assay type: binding; details: native conditions, essentially as for Oligonucleotide 3
# Text: The conditions of the gel band mobility shift assay were essentially as described above.
# HL60 cells = assay: Leukemic cell proliferation / cytotoxicity, HL60 cells (no BCR/ABL breakpoint); assay type: cell-based
# Protocol: as §2
# (§8) Briefly, FIG. 10 illustrates the effect of BCR-ABL oligomers on leukemic cell proliferation of BV173 cells carrying the B2A2-type break points. BV173 is a leukemic cell line with the B2A2 BCR/ABL fusion junction (Pegoraro, et al., 1983). HL60 is a promyelocytic leukemic cell line with a normal c-abl locus (Collins, et al., 1977). K562 is a leukemic cell line with the B3A2 BCR/ABL fusion junction (Seelig, et al., 1993).
# as §3, §4
# K562 cells = assay: Leukemic cell proliferation / cytotoxicity, K562 cells (B3A2 BCR/ABL fusion junction); assay type: cell-based; details: FIG. 15
# Protocol: as §2, §8, §3, §4
# [6] = versus Oligodeoxyribonucleotide 4
substance,measurement,setting,value
"phosphodiester decathymidilic acid [Oligonucleotide 1, reference compound]",triplex formation judged by melting curves,"[1]; buffers A and B, 260 and 284 nm",no corresponding triplex was formed; also recorded: did not form triplexes
same,triplex formation in gel band mobility shift assay,[2],no corresponding triplex was formed; also recorded: fails to form a triplex
"16mer phosphorothioate oligonucleotide (SEQ ID NO:27): 16mer phosphorothioate complementary to the B3A2 BCR/ABL fusion junction; 2 base pair mismatch to B2A2 (antisense GAGTTCAAAAGCCCTT; all phosphorothioate, sugars by position and methylation of C not given here)",tolerance by BV173 cells,BV173 cells; all concentrations (FIG. 17),tolerated by the cells
d(A10 C4 T10) [hairpin duplex],Tm of the hairpin duplex,[3]; buffer A,55.7 °C
same,Tm of the hairpin duplex,[3]; buffer B (10 mM MgCl2),61.5 °C
"phosphorothioate 16-mer: oligonucleotide 16-mer having fully modified phosphorothioate intersubunit linkages, containing the SEQ ID NO:6 sequence (antisense AAGGGCTTCTTCCTTA; all phosphorothioate, sugars by position and methylation of C not given here)",cytotoxicity,control cell lines,absence of cytotoxicity
same,shape of inhibition curves at later time points after partial release of inhibition,BV173 cells,steep upward inflection at later time points
same,concentrations of release of inhibition relative to phosphoramidate oligonucleotide 6,BV173 cells; FIGS. 18 and 19,much lower concentrations
same,inhibition of BV173 leukemia cell growth relative to phosphoramidate oligonucleotide 6,BV173 cells,not effective at inhibiting BV173 leukemia cell proliferation
same,inhibition of BV173 leukemia cell growth relative to phosphoramidate oligonucleotide 6,BV173 cells; listed as 16-mer (SEQ ID NO:26),not as effective as oligonucleotide 6
"Oligonucleotide 6: fully modified N3'→P5' phosphoramidate 11-mer complementary to the BCR-ABL junction B2A2 (antisense CTTCTTCCTTA; all [np], sugars by position and methylation of C not given here)",Tm of duplex with complementary DNA strand,complementary DNA strand; buffer A,49.2 °C
same,"Tm increase relative to parent phosphodiester Oligodeoxyribonucleotide 4, DNA strand",complementary DNA strand; [6],11.7 °C
same,Tm of duplex with complementary RNA strand,complementary RNA strand; buffer A,72.4 °C
same,"Tm increase relative to parent phosphodiester Oligodeoxyribonucleotide 4, RNA strand",complementary RNA strand; [6],22.9 °C
same,"duplex stability increase relative to homologous RNA oligomer 5, same RNA target",complementary RNA strand; versus RNA oligomer 5,18.0 °C
same,ΔTm with single mismatch RNA target versus fully complementary,[4],-12.2 °C
same,Tm of triplex,[1]; close to physiological conditions (buffer A),32 °C
same,Tm of triplex,[1]; magnesium-containing buffer (buffer B),42.2 °C
same,triplex formation in gel band mobility shift assay,[5],stable triplex formation; also recorded: confirmed by gel band mobility shift assay
same,cytotoxicity to HL60 cells,HL60 cells,no apparent cytotoxicity; also recorded: negligible toxicity
same,tolerance by HL60 cells,HL60 cells; all concentrations (FIG. 11),well tolerated by the cells
same,effect on proliferation of K562 cells / cytotoxicity,K562 cells,essentially no effect on the proliferation
same,shape of inhibition curves at later time points after partial release of inhibition,BV173 cells,downward inflection at later time points
same,inhibition of BV173 leukemia cell proliferation,"BV173 cells; all concentrations / FIG. 10 down to 5/2.5/2.5 μg/ml on days 0, 1, 2",extremely effective at inhibiting the growth of the leukemia cells
same,inhibition of BV173 leukemia cell proliferation,BV173 cells; lowest concentrations 0.3125/0.15625/0.15625 μg/mL (FIG. 12),extremely effective at inhibiting leukemia cell proliferation
